Assay results as given in patent US20250230172A1 (Vanqua Bio, Inc., priority 2021, published 2025).

These molecules were tested against T1, GCase (Homo sapiens, UniProt P04062) (assay: live cell PFB assay in HELA cells for activation of GCase).
T1 construct: endogenous in cells; host or cells: HeLa cells
T1 sequence (P04062 40-536): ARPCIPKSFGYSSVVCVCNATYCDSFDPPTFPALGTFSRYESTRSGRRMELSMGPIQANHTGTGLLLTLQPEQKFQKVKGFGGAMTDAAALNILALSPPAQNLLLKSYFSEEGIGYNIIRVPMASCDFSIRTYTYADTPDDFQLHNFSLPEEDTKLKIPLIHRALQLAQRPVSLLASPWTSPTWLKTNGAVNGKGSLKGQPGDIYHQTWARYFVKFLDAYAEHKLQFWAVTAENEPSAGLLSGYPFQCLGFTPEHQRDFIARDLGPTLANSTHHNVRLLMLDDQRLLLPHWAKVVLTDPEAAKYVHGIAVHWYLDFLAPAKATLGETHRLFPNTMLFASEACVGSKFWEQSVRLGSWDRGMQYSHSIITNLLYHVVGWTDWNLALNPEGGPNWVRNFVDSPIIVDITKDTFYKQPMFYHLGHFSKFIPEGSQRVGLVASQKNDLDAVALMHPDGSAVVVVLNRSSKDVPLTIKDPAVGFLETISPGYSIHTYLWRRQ
Assay type: cell-based
Procedure: Exemplary compounds were evaluated for activation of GCase in a live cell PFB assay in HELA cells (essentially as described in Ysselstein et al., “LRRK2 kinase activity regulates lysosomal glucocerebrosidase in neurons derived from Parkinson's disease patients” Nature Communications (2019) 10:5570). […] EC50 ranges: A: <10 μM; B: >10-50 μM; C: >50-100 μM; D: >100 μM.

EC50 [µM] | Structure (SMILES)
10 to 50 | FC(F)Cn1ncc2ncc(N3C[C@H]4CCN(c5ccc(C(F)(F)F)cn5)C[C@H]4C3)nc21 (racemic) [Compound 18]
< 10 | FC(F)Cn1ncc2ncc(N3CC[C@@H]4CN(c5cccnc5C(F)(F)F)C[C@@H]4C3)nc21 (racemic) [Compound 2, rac-3-[(3aR,7aS)-5-[1-(2,2-difluoroethyl)-1H-pyrazolo[3,4-b]pyrazin-6-yl]-octahydro-1H-pyrrolo[3,4-c]pyridin-2-yl]-2-(trifluoromethyl)pyridine]
10 to 50 | O=C1[C@@H]2CN(c3cc(C(F)(F)F)ccn3)C[C@@H]2CN1c1cnc2cnn(CC(F)F)c2n1 (racemic) [Compound 55, rac-(3aR,6aS)-2-[1-(2,2-difluoroethyl)-1H-pyrazolo[3,4-b]pyrazin-6-yl]-5-[4-(trifluoromethyl)pyridin-2-yl]-octahydropyrrolo[3,4-c]pyrrol-1-one]
< 10 | FC(F)Cn1ncc2ncc(N3CC[C@@H]4CN(c5ccnc(C(F)(F)F)c5)C[C@@H]4C3)nc21 (racemic) [Compound 21, rac-4-[(3aR,7aS)-5-[1-(2,2-difluoroethyl)-1H-pyrazolo[3,4-b]pyrazin-6-yl]-octahydro-1H-pyrrolo[3,4-c]pyridin-2-yl]-2-(trifluoromethyl)pyridine]
10 to 50 | FC(F)Cn1ncc2ncc(N3CC[C@H]4CN(c5ccc(C(F)(F)F)cn5)C[C@@H]4C3)nc21 [Compound 69, 1-(2,2-difluoroethyl)-6-((3aS,7aR)-2-(5-(trifluoromethyl)pyridin-2-yl)octahydro-5H-pyrrolo[3,4-c]pyridin-5-yl)-1H-pyrazolo[3,4-b]pyrazine]
10 to 50 | FC(F)Cn1ncc2ncc(N[C@H]3C[C@@H]4CN(c5ccc(C(F)(F)F)cn5)C[C@@H]4C3)nc21 [Compound 40, (3aR,5S,6aS)—N-[1-(2,2-difluoroethyl)-1H-pyrazolo[3,4-b]pyrazin-6-yl]-2-[5-(trifluoromethyl)pyridin-2-yl]-octahydrocyclopenta[c]pyrrol-5-amine]
< 10 | FC(F)Cn1ncc2ncc(N[C@@H]3C[C@@H]4CN(c5cc(C(F)(F)F)ccn5)C[C@@H]4C3)nc21 [Compound 33, (3aR,5S,6aS)—N-[1-(2,2-difluoroethyl)-1H-pyrazolo[3,4-b]pyrazin-6-yl]-2-[4-(trifluoromethyl)pyridin-2-yl]-octahydrocyclopenta[c]pyrrol-5-amine]
< 10 | FC(F)Cn1ncc2ncc(N3CC[C@@H]4CN(c5ncccc5C(F)(F)F)C[C@@H]4C3)nc21 (racemic) [Compound 5]
> 100 | FC(F)Cn1ncc2ncc(N3CC4CC(Oc5cccnc5C(F)(F)F)CC4C3)nc21 (stereo not drawn) [Compound 31, 3-({2-[1-(2,2-difluoroethyl)-1H-pyrazolo[3,4-b]pyrazin-6-yl]-octahydrocyclopenta[c]pyrrol-5-yl}oxy)-2-(trifluoromethyl)pyridine]
> 100 | FC(F)Cn1ncc2ncc(N3C[C@H]4CN(c5cccc(C(F)(F)F)n5)C[C@H]4C3)nc21 [Compound 45, rac-2-[(3aR,6aS)-5-[1-(2,2-difluoroethyl)-1H-pyrazolo[3,4-b]pyrazin-6-yl]-octahydropyrrolo[3,4-c]pyrrol-2-yl]-6-(trifluoromethyl)pyridine]
< 10 | FC(F)Cn1ncc2ncc(N[C@H]3C[C@@H]4CN(c5cc(C(F)(F)F)ccn5)C[C@@H]4C3)nc21 [Compound 35, (3aR,5R,6aS)—N-[1-(2,2-difluoroethyl)-1H-pyrazolo[3,4-b]pyrazin-6-yl]-2-[4-(trifluoromethyl)pyridin-2-yl]-octahydrocyclopenta[c]pyrrol-5-amine]
< 10 | FC(F)Cn1ncc2ncc(N3CC[C@@H]4CN(c5ccc(C(F)(F)F)cn5)C[C@@H]4C3)nc21 (racemic) [Compound 8]
< 10 | FC(F)Cn1ncc2ncc(N3C[C@H]4CCN(c5cccc(C(F)(F)F)n5)C[C@H]4C3)nc21 (racemic) [Compound 6]
10 to 50 | FC(F)Cn1ncc2ncc(N3C[C@@H]4CCN(c5cccc(C(F)(F)F)n5)[C@@H]4C3)nc21 (racemic) [Compound 61, rac-2-[(3aR,6aR)-5-[1-(2,2-difluoroethyl)-1H-pyrazolo[3,4-b]pyrazin-6-yl]-octahydropyrrolo[2,3-c]pyrrol-1-yl]-6-(trifluoromethyl)pyridine]
< 10 | FC(F)Cn1ncc2ncc(N[C@H]3CC[C@@H]4CN(c5cc(C(F)(F)F)ccn5)C[C@@H]4C3)nc21 (single isomer, unassigned) [Compound 72]

Continued, molecule first:

Structure (SMILES) | EC50 [µM]
Cn1c(-c2ccccc2)c(C(=O)N2CCN3C[C@H](Oc4cccnc4C(F)(F)F)C[C@H]3C2)c2nccnc21 [Compound 27, 3-{[(7R,8aS)-2-{5-methyl-6-phenyl-5H-pyrrolo[2,3-b]pyrazine-7-carbonyl}-octahydropyrrolo[1,2-a]pyrazin-7-yl]oxy}-2-(trifluoromethyl)pyridine] | 50 to 100
FC(F)Cn1ncc2ncc(N[C@H]3C[C@@H]4CN(c5ncc(C(F)(F)F)cn5)C[C@@H]4C3)nc21 [Compound 86, 1-(2,2-difluoroethyl)-N-((3aR,5s,6aS)-2-(5-(trifluoromethyl)pyrimidin-2-yl)octahydrocyclopenta[c]pyrrol-5-yl)-1H-pyrazolo[3,4-b]pyrazin-6-amine] | 10 to 50
FC(F)Cn1ncc2ncc(N[C@H]3C[C@@H]4CN(c5cccc(C(F)(F)F)n5)C[C@@H]4C3)nc21 [Compound 34, (3aR,5R,6aS)—N-[1-(2,2-difluoroethyl)-1H-pyrazolo[3,4-b]pyrazin-6-yl]-2-[6-(trifluoromethyl)pyridin-2-yl]-octahydrocyclopenta[c]pyrrol-5-amine] | 10 to 50
FC(F)Cn1ncc2ncc(N[C@@H]3C[C@@H]4CN(c5ccc(C(F)(F)F)nc5)C[C@@H]4C3)nc21 [Compound 39, (3aR,5S,6aS)—N-[1-(2,2-difluoroethyl)-1H-pyrazolo[3,4-b]pyrazin-6-yl]-2-[6-(trifluoromethyl)pyridin-3-yl]-octahydrocyclopenta[c]pyrrol-5-amine] | < 10
FC(F)Cn1ncc2ncc(N[C@H]3C[C@@H]4CN(c5ccc(C(F)(F)F)nc5)C[C@@H]4C3)nc21 [Compound 42, (3aR,5S,6aS)—N-[1-(2,2-difluoroethyl)-1H-pyrazolo[3,4-b]pyrazin-6-yl]-2-[6-(trifluoromethyl)pyridin-3-yl]-octahydrocyclopenta[c]pyrrol-5-amine] | 10 to 50
COc1cncc(N2C[C@H]3C[C@H](Nc4cnc5cnn(CC(F)F)c5n4)C[C@H]3C2)n1 [Compound 76, 1-(2,2-difluoroethyl)-N-((3aR,5s,6aS)-2-(6-methoxypyrazin-2-yl)octahydrocyclopenta[c]pyrrol-5-yl)-1H-pyrazolo[3,4-b]pyrazin-6-amine] | 10 to 50
FC(F)Cn1ncc2ncc(N[C@@H]3C[C@@H]4CN(c5cncc(C(F)(F)F)c5)C[C@@H]4C3)nc21 [Compound 52, (3aR,5S,6aS)—N-[1-(2,2-difluoroethyl)-1H-pyrazolo[3,4-b]pyrazin-6-yl]-2-[5-(trifluoromethyl)pyridin-3-yl]-octahydrocyclopenta[c]pyrrol-5-amine] | < 10
FC(F)(F)c1ccnc(N2C[C@H]3CCN(c4cncc(-c5nncs5)n4)C[C@H]3C2)c1 (racemic) [Compound 19, rac-2-[(3aR,7aS)-2-[4-(trifluoromethyl)pyridin-2-yl]-octahydro-1H-pyrrolo[3,4-c]pyridin-5-yl]-6-(1,3,4-thiadiazol-2-yl)pyrazine] | > 100
FC(F)Cn1ncc2ncc(-n3ncc4c3CCN(c3ncccc3C(F)(F)F)C4)nc21 [Compound 64, 1-(2,2-difluoroethyl)-6-(5-(3-(trifluoromethyl)pyridin-2-yl)-4,5,6,7-tetrahydro-1H-pyrazolo[4,3-c]pyridin-1-yl)-1H-pyrazolo[3,4-b]pyrazine] | 10 to 50
FC(F)Cn1ncc2ncc(N[C@@H]3C[C@@H]4CN(c5cccc(C(F)(F)F)n5)C[C@@H]4C3)nc21 [Compound 32, (3aR,5S,6aS)—N-[1-(2,2-difluoroethyl)-1H-pyrazolo[3,4-b]pyrazin-6-yl]-2-[6-(trifluoromethyl)pyridin-2-yl]-octahydrocyclopenta[c]pyrrol-5-amine] | < 10
FC(F)Cn1ncc2ncc(N[C@H]3C[C@@H]4CN(c5cc(C(F)(F)F)ncn5)C[C@@H]4C3)nc21 [Compound 90, 1-(2,2-difluoroethyl)-N-((3aR,5s,6aS)-2-(6-(trifluoromethyl)pyrimidin-4-yl)octahydrocyclopenta[c]pyrrol-5-yl)-1H-pyrazolo[3,4-b]pyrazin-6-amine] | < 10
FC(F)Cn1ncc2ncc(N[C@H]3C[C@@H]4CN(c5nccc(C(F)(F)F)n5)C[C@@H]4C3)nc21 [Compound 85, 1-(2,2-difluoroethyl)-N-((3aR,5s,6aS)-2-(4-(trifluoromethyl)pyrimidin-2-yl)octahydrocyclopenta[c]pyrrol-5-yl)-1H-pyrazolo[3,4-b]pyrazin-6-amine] | < 10
